Assay results from US11053248B2, “[1,2,4]triazolo[1,5-a]pyrimidine compounds as PDE2 inhibitors” (Janssen Pharmaceutica NV, priority 2016, dated 2021).

How the values were obtained:
[1] = biological target: T1, hPDE2A (Homo sapiens, UniProt O00408); experiment: In vitro assay PDE2A (SPA, 3H-cGMP); type: biochemical
T1 construct: made in house; host or cells: Sf9 insect cells (baculovirus)
Outline: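 Sf9-expressed, Ni-sepharose-purified enzyme in 50 mM Tris pH 7.8, 8.3 mM MgCl2, 1.7 mM EGTA with 10 μM cGMP plus 0.01 μCi 3H-cGMP (final), 1% DMSO. Reaction 45 min at room temperature; SPA bead radioactivity counted as cpm, blanks without enzyme, controls with DMSO instead of compound.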

[2] = system: hPDE3B; experiment: In vitro assay PDE3 (SPA, 3H-cAMP); type: biochemical, human
[3] = biological target: T2, PDE2A (Rattus norvegicus, UniProt Q01062); experiment: PDE2 occupancy by ex-vivo autoradiography with [3H]B-17a; type: in vivo; settings: rat
T2 construct: from tissue; host or cells: rat brain striatal sections (ex vivo)
T2 sequence (Q01062 1-928): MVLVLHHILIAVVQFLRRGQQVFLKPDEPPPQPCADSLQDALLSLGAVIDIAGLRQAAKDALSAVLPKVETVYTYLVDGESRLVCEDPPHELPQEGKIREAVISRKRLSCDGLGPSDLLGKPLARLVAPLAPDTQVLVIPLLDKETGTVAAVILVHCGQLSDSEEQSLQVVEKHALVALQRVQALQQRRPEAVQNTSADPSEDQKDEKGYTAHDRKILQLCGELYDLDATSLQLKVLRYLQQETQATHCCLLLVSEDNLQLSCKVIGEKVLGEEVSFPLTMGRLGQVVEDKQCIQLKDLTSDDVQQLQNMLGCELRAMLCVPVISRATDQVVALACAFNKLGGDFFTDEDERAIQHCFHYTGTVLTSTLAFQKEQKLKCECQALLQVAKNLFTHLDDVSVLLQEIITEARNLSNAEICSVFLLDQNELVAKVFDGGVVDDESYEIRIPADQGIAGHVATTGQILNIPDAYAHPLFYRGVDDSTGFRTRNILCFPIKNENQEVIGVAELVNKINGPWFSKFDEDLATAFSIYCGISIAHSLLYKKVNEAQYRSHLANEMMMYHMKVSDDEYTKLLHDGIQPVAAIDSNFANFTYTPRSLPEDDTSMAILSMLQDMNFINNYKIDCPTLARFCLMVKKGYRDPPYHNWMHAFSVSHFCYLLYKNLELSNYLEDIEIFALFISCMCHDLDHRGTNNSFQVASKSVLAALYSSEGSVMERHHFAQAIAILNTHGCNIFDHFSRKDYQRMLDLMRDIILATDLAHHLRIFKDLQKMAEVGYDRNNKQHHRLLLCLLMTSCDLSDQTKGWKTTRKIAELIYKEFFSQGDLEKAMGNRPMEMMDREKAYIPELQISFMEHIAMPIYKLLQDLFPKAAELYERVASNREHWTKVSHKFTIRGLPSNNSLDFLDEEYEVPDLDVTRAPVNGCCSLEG

[4] = Solubility (as reported); type: physicochemical; settings: in words

T1 sequence (O00408 whole entry): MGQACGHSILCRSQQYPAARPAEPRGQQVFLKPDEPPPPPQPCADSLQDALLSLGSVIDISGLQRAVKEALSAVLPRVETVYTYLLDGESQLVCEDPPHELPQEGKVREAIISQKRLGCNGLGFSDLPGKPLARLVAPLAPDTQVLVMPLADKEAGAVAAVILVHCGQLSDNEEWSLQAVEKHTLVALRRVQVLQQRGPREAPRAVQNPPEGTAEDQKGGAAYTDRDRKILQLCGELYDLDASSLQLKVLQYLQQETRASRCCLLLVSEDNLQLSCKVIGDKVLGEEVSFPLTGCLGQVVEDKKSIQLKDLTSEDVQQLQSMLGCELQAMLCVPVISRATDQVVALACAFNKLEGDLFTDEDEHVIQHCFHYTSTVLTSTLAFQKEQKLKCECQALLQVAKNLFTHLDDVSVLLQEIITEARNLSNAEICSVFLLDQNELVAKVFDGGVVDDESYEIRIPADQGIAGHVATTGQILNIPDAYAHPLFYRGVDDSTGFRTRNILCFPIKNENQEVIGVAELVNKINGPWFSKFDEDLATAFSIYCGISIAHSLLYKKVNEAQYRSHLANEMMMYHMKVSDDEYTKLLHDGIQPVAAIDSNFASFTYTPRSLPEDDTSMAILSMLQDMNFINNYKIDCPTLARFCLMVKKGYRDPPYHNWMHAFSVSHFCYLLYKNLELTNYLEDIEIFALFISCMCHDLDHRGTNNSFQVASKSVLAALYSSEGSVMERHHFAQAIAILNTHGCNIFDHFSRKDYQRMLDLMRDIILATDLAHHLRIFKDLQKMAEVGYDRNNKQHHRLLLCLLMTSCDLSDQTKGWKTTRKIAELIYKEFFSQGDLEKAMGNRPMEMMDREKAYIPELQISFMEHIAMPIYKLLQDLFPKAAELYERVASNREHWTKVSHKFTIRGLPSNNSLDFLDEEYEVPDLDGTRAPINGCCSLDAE

## C[C@@H]1CCN(c2nccc3ccc(Br)cc23)C[C@H]1c1cc(C(F)F)nc2ncnn12 [Compound 1]
[1]; 10 μM cGMP substrate, read-out: hPDE2A pIC50 (converted)
  IC50: 2.24 nM
[1]; read-out: hPDE2A Emax
  Emax: 96%
[2]
  hPDE3B Emax: 73
[2]; 0.4 μM cAMP substrate
  hPDE3B pIC50: 5.25
[3]; po, read-out: PDE2 occupancy at 10 mg/kg, route PO (oral), 10 mg/kg, male Wistar rats, striatum, percentage occupancy
  receptor occupancy at 10 mg/kg: 94%
[3]; sc, read-out: PDE occupancy ED50, route SC (subcutaneous), male Wistar rats, dose producing 50% occupancy
  ED50: 6.7 mg/kg
[4]
  solubility: poor
other
  melting point: 129.91 °C
